In brackets after ≈: the same amount, converted by molar mass. Read-outs that look alike come from different tables or passages of the source. Positions of bridges follow the written chain, without caps; N, C: chain ends. Non-standard residues stand in square brackets, D forms with d. Residues, ends and D or L forms follow the SMILES beside them. *: point of attachment. X1 = CC[C@H](C)CCCCC(=O)*; Dab = NCC[C@H](N)C(=O)O
How the values were obtained:
[1] = test system: isolates from peptidomimetic 1-exposed E. coli ATCC 25922 lineages; settings: for change in MIC following acquisition of peptidomimetic resistance: isolate 2–7 vs wild type, biological duplicates; for cross-resistance: MIC as compared to the wild type: all twenty isolates from lineages no. 2 and 5, KR-12, IsCTp, melittin, PEP-1-K in 1% peptone instead of MHB
Procedure: (§1) Continuous selection of resistance was performed for peptidomimetic 1 (Figure 1) and for the clinically relevant natural antimicrobial peptide, polymyxin B. A bacterial suspension of a single colony of E. coli ATCC 25922 was re-inoculated (10 µl) five times in unsupplemented MHB (990 µl). It was then re-inoculated in MHB supplemented with peptidomimetic 1 (ten lineages) or polymyxin B (ten lineages), and after ten re-inoculations at constant peptidomimetic or polymyxin B concentration, the concentrations were doubled. […] Four lineages grown in MHB with MilliQ water were included as control. Re-inoculations were performed twice a day, but were reduced to once a day when growth was slower as assessed by turbidity of the cultures. The total number of passages (supplemented with peptidomimetic/AMP) was 77 times equivalent to approx. 500 generations. For each increase in concentration the lineages were preserved as freezing stocks. Ten colony isolates were randomly selected from each lineage population at 32×MIC and preserved as freezing stocks.
MIC was determined by using the micro-dilution method according to guidelines of the Clinical and Laboratory Standards Institute. Peptidomimetic 1 and erythromycin 1∶2 serial dilutions were prepared from 1024 µg/mL stock solutions to give a final range of 512-0.5 µg/mL in the wells. Ampicillin 1∶2 serial dilutions were prepared from a 256 µg/mL stock solution to give a final range of 128-0.13 µg/mL in the wells. Polymyxin B and gentamicin 1∶2 serial dilutions were prepared from a 64 µg/mL stock solution to give a final range of 32-0.03 µg/mL in the wells.
The population lineages were tested for their susceptibility towards peptidomimetic 1, polymyxin B, gentamicin and ampicillin. Single-culture isolates selected from these populations were additionally tested against peptidomimetic 1, polymyxin B, erythromycin and the five reference AMPs. To estimate the level of cross-resistance to closely related peptidomimetics, MIC determinations were performed for peptidomimetics 2 and 3 (Figure 1) towards selected isolates. The bacterial suspensions were grown overnight in MHB at 37°C for determination of the population MIC, or individual isolates were grown overnight on non-selective BHI agar at 37°C. […] In all experiments, bacterial cells were suspended in 0.9% saline to give a turbidity of 0.13 at OD546 (approximately 1×10^8 CFU/mL) and diluted in MHB pH 7.4 to a final concentration of 5×10^5 CFU/mL in each well. Polypropylene plates (Nunc 442587) were used to minimize peptide binding, and the incubation time was 18–20 hours at 37°C. […] MIC was found in a minimum of two technical (population MIC) or biological (isolate MIC) replicates as the lowest concentration of the AMP or antibiotic where no visible growth was observed.

[2] = test system: E. coli ATCC 25922 lineages adapted to peptidomimetic 1; format: cell-based, Escherichia coli; settings: for cross-resistance to conventional antibiotics: any of the lineages (peptidomimetic- and polymyxin B-exposed), population MIC, data not shown
Procedure: as §1
(§2) MIC was determined by using the micro-dilution method according to guidelines of the Clinical and Laboratory Standards Institute. Peptidomimetic 1 and erythromycin 1∶2 serial dilutions were prepared from 1024 µg/mL stock solutions to give a final range of 512-0.5 µg/mL in the wells. Ampicillin 1∶2 serial dilutions were prepared from a 256 µg/mL stock solution to give a final range of 128-0.13 µg/mL in the wells. Polymyxin B and gentamicin 1∶2 serial dilutions were prepared from a 64 µg/mL stock solution to give a final range of 32-0.03 µg/mL in the wells. Also, 1∶2 serial dilutions of the AMPs KR-12, IsCTp, melittin and PEP-1-K were prepared from 64 µg/mL stock solutions to give a final range of 32-0.03 µg/mL in the wells; however this was performed in 1% peptone instead of in MHB since activity was drastically diminished in the latter (not shown).
(§3) The population lineages were tested for their susceptibility towards peptidomimetic 1, polymyxin B, gentamicin and ampicillin. Single-culture isolates selected from these populations were additionally tested against peptidomimetic 1, polymyxin B, erythromycin and the five reference AMPs. To estimate the level of cross-resistance to closely related peptidomimetics, MIC determinations were performed for peptidomimetics 2 and 3 (Figure 1) towards selected isolates. The bacterial suspensions were grown overnight in MHB at 37°C for determination of the population MIC, or individual isolates were grown overnight on non-selective BHI agar at 37°C. […] In all experiments, bacterial cells were suspended in 0.9% saline to give a turbidity of 0.13 at OD546 (approximately 1×10^8 CFU/mL) and diluted in MHB pH 7.4 to a final concentration of 5×10^5 CFU/mL in each well. Polypropylene plates (Nunc 442587) were used to minimize peptide binding, and the incubation time was 18–20 hours at 37°C. Incubation time was additionally extended up to 44 hours for the individual isolates due to a potential effect of growth rate on the outcome, but no effect was seen of this (not shown). MIC was found in a minimum of two technical (population MIC) or biological (isolate MIC) replicates as the lowest concentration of the AMP or antibiotic where no visible growth was observed.
(§4) Frozen stocks were reconditioned in unsupplemented MHB media for five transfers (∼35 generations) at 37°C. The heritability of resistance was established through MIC determination of bacterial populations as described above.

[3] = test system: E. coli ATCC 25922 control lineages; format: cell-based, Escherichia coli; settings: two technical duplicates
Procedure: as §1, §2, §3, §4

[4] = test system: E. coli ATCC 25922 lineages adapted to polymyxin B; format: cell-based, Escherichia coli; settings: for MIC against polymyxin after 35 generations w/o selection / MIC against polymyxin after selection: two technical duplicates; for MIC against polymyxin after selection: MHB pH 7.4, 37°C, 18–20 h
Procedure: as §1, §2, §3, §4

[5] = test system: Escherichia coli ATCC 25922; experiment: Continuous selection experiment; format: cell-based
Procedure: as §1

lysozyme
change in MIC following acquisition of peptidomimetic resistance [1]: No changes

CNC(C)C1CCC(N)C(OC2C(N)CC(N)C(OC3OCC(C)(O)C(NC)C3O)C2O)O1 (centres unmarked) [gentamicin, reference compound]
cross-resistance to conventional antibiotics [2]: No cross-resistance

CC[C@H](C)CCCCC(=O)N[C@@H](CCN)C(=O)N[C@H](C(=O)N[C@@H](CCN)C(=O)N[C@H]1CCNC(=O)[C@H]([C@@H](C)O)NC(=O)[C@H](CCN)NC(=O)[C@H](CCN)NC(=O)[C@H](CC(C)C)NC(=O)[C@@H](Cc2ccccc2)NC(=O)[C@H](CCN)NC1=O)[C@@H](C)O [polymyxin B, Polymyxin B] (X1-[Dab]T[Dab][Dab][Dab][dF]L[Dab][Dab]T; lactam 4-C (inferred); N-terminus assumed)
cross-resistance after removal of the selection pressure ([2]; peptidomimetic-exposed lineages, ~35 generations unsupplemented, became similar to controls, not shown): lost | MIC against polymyxin after 35 generations w/o selection ([3]; Control 1 lineage (MilliQ water)): 0.5 µg/mL (≈ 0.415 µM) | MIC against polymyxin after selection ([3]; Control 1 lineage (MilliQ water, no polymyxin)): 8 µg/mL (≈ 6.65 µM) | MIC against polymyxin after 35 generations w/o selection ([3]; Control 2 lineage (MilliQ water)): 0.5 to 1 µg/mL | MIC against polymyxin after selection ([3]; Control 2 lineage (MilliQ water, no polymyxin)): 1 µg/mL (≈ 0.831 µM) | MIC against polymyxin after 35 generations w/o selection ([4]; polymyxin B-exposed lineage 2, five passages in unsupplemented MHB): 32 µg/mL (≈ 26.6 µM) | MIC against polymyxin after selection ([4]; polymyxin B-exposed lineage 2, population outgrown at 32×wt MIC): 32 µg/mL (≈ 26.6 µM) | MIC against polymyxin after 35 generations w/o selection ([4]; polymyxin B-exposed lineage 3, five passages in unsupplemented MHB): 32 µg/mL (≈ 26.6 µM) | MIC against polymyxin after selection ([4]; polymyxin B-exposed lineage 3, population outgrown at 32×wt MIC): 32 µg/mL (≈ 26.6 µM) | MIC against polymyxin after 35 generations w/o selection ([4]; polymyxin B-exposed lineage 4, five passages in unsupplemented MHB): 32 µg/mL (≈ 26.6 µM) | MIC against polymyxin after selection ([4]; polymyxin B-exposed lineage 4, population outgrown at 32×wt MIC): 32 µg/mL (≈ 26.6 µM) | MIC against polymyxin after 35 generations w/o selection ([4]; polymyxin B-exposed lineage 5, five passages in unsupplemented MHB): 32 µg/mL (≈ 26.6 µM) | MIC against polymyxin after selection ([4]; polymyxin B-exposed lineage 5, population outgrown at 32×wt MIC): 32 µg/mL (≈ 26.6 µM) | MIC against polymyxin after 35 generations w/o selection ([4]; polymyxin B-exposed lineage 6, five passages in unsupplemented MHB): 32 µg/mL (≈ 26.6 µM) | MIC against polymyxin after selection ([4]; polymyxin B-exposed lineage 6, population outgrown at 32×wt MIC): 32 µg/mL (≈ 26.6 µM) | MIC against polymyxin after 35 generations w/o selection ([4]; polymyxin B-exposed lineage 8, five passages in unsupplemented MHB): 32 µg/mL (≈ 26.6 µM) | MIC against polymyxin after selection ([4]; polymyxin B-exposed lineage 8, population outgrown at 32×wt MIC): 32 µg/mL (≈ 26.6 µM) | MIC against polymyxin after 35 generations w/o selection ([4]; polymyxin B-exposed lineage 9, five passages in unsupplemented MHB): 32 µg/mL (≈ 26.6 µM) | MIC against polymyxin after selection ([4]; polymyxin B-exposed lineage 9, population outgrown at 32×wt MIC): 32 µg/mL (≈ 26.6 µM) | MIC against polymyxin after 35 generations w/o selection ([4]; polymyxin B-exposed lineage 10, five passages in unsupplemented MHB): 32 µg/mL (≈ 26.6 µM) | MIC against polymyxin after selection ([4]; polymyxin B-exposed lineage 10, population outgrown at 32×wt MIC): 32 µg/mL (≈ 26.6 µM) | increase in MIC as compared to the wild-type strain ([4]; the eight polymyxin B-exposed lineages after selection): 32 fold | lineages that eventually grew at 32×wt MIC ([5]; ten lineages per agent, from 1/16×wt MIC, doubled stepwise, 77 inoculations, approx. 500 generations, 32×wt MIC = 256 µg/mL peptidomimetic 1, 32 µg/mL polymyxin B): eight out of ten | growth of unexposed control lineages at 4×wt MIC ([5]; two controls per agent, 32 µg/mL peptidomimetic 1 or 4 µg/mL polymyxin B): one of the two controls | cross-resistance: MIC as compared to the wild type ([1]; not shown): did not find increased MIC values

protamine [reference compound]
cross-resistance: MIC as compared to the wild type ([1]; not shown): did not find increased MIC values

OO [hydrogen peroxide, reference compound]
change in MIC following acquisition of peptidomimetic resistance [1]: No changes

CC1(C)S[C@@H]2[C@H](NC(=O)[C@H](N)c3ccccc3)C(=O)N2[C@H]1C(=O)O [ampicillin, reference compound]
cross-resistance to conventional antibiotics [2]: No cross-resistance

melittin [melitin, reference compound]
cross-resistance: MIC as compared to the wild type ([1]; not shown): did not find increased MIC values

CC[C@H]1OC(=O)[C@H](C)[C@@H](O[C@H]2C[C@@](C)(OC)[C@@H](O)[C@H](C)O2)[C@H](C)[C@@H](O[C@@H]2O[C@H](C)C[C@H](N(C)C)[C@H]2O)[C@](C)(O)C[C@@H](C)C(=O)[C@H](C)[C@@H](O)[C@]1(C)O [erythromycin, reference compound]
change in susceptibility as compared to the wild type ([1]; the five highly resistant isolates of lineage no. 2 carrying the macrolide transporter mutation, not shown): No change

Reference: PMC3764026, “Adaptive Evolution of Escherichia coli to an α-Peptide/β-Peptoid Peptidomimetic Induces Stable Resistance” (PLoS ONE, 2013)
